Measurements reported in the supplement of paper PMC11061612.

Legend:
Prexasertib = compound: COc1cccc(OCCCN)c1-c1cc(Nc2cnc(C#N)cn2)n[nH]1 [Prexasertib]; settings: max 1 µM
Outline: (§1)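 Cancer cell lines in 1536-well plates (7.5 μl DMEM/F12 or RPMI, 10% FBS) were held 24 hours at 37°C and 5% CO2 and then dosed for 72 hours at a final DMSO of typically 0.2%. Viability was taken from CellTiter-Glo 2.0 luminescence, scaled between blank-well and DMSO-well means. Curves were fitted as two-parameter logistic models with a non-linear mixed effects model, from which the single-agent IC50 was taken.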

Savolitinib = compound: C[C@@H](c1ccc2nccn2c1)n1nnc2ncc(-c3cnn(C)c3)nc21 [Savolitinib]; settings: max 1 µM
Outline: as §1

Gefitinib = compound: COc1cc2ncnc(Nc3ccc(F)c(Cl)c3)c2cc1OCCCN1CCOCC1 [Gefitinib]; settings: max 10 µM
Outline: as §1

MK-2206 = compound: NC1(c2ccc(-c3nc4ccn5c(=O)[nH]nc5c4cc3-c3ccccc3)cc2)CCC1 [MK-2206]; settings: max 10 µM
Outline: as §1

AZD7648 = compound: Cc1cc2ncnn2cc1Nc1ncc2c(n1)n(C1CCOCC1)c(=O)n2C [AZD7648]; settings: max 10 µM
Outline: as §1

Dasatinib = compound: CC1=C(C(=CC=C1)Cl)NC(=O)C2=CN=C(S2)NC3=CC(=NC(=N3)C)N4CCN(CC4)CCO [Dasatinib]; settings: max 2 µM
Outline: as §1

AZD5153 = compound: COc1nnc2ccc(N3CCC(c4ccc(OCCN5CCN(C)C(=O)[C@H]5C)cc4)CC3)nn12 [AZD5153]; settings: max 1 µM
Outline: as §1

AZD8186 = compound: C[C@@H](Nc1cc(F)cc(F)c1)c1cc(C(=O)N(C)C)cc2c(=O)cc(N3CCOCC3)oc12 [AZD8186]; settings: max 10 µM
Outline: as §1

Olaparib = compound: O=C(c1cc(Cc2n[nH]c(=O)c3ccccc23)ccc1F)N1CCN(C(=O)C2CC2)CC1 [Olaparib]; settings: max 10 µM
Outline: as §1

AZD4320 = compound: CN(CC[C@H](CSC1=CC=CC=C1)NC2=C(C=C(C=C2)S(=O)(=O)NC(=O)C3=CC=C(C=C3)N4CCC(CC4)[C@H](C5=CC=CC=C5C6=CC=C(C=C6)Cl)O)S(=O)(=O)C(F)(F)F)CCO [AZD4320]; settings: max 1 µM
Outline: as §1

Palbociclib = compound: CC(=O)c1c(C)c2cnc(Nc3ccc(N4CCNCC4)cn3)nc2n(C2CCCC2)c1=O [Palbociclib]; settings: max 10 µM
Outline: as §1

AZD1390 = compound: CC(C)n1c(=O)n(C)c2cnc3cc(F)c(-c4ccc(OCCCN5CCCCC5)nc4)cc3c21 [AZD1390]; settings: max 0.3 µM
Outline: as §1

Carboplatin = compound: C1CC(C1)(C(=O)[O-])C(=O)[O-].N.N.[Pt+2] [Carboplatin]; settings: max 10 µM
Outline: as §1

Lapatinib = compound: CS(=O)(=O)CCNCc1ccc(-c2ccc3ncnc(Nc4ccc(OCc5cccc(F)c5)c(Cl)c4)c3c2)o1 [Lapatinib]; settings: max 10 µM
Outline: as §1

Gemcitabine = compound: Nc1ccn([C@@H]2O[C@H](CO)[C@@H](O)C2(F)F)c(=O)n1 [Gemcitabine]; settings: max 0.3 µM
Outline: as §1

Doxorubicin = compound: COc1cccc2c1C(=O)c1c(O)c3c(c(O)c1C2=O)C[C@@](O)(C(=O)CO)C[C@@H]3O[C@H]1C[C@H](N)[C@H](O)[C@H](C)O1 [Doxorubicin]; settings: max 1 µM
Outline: as §1

Paclitaxel = compound: CC(=O)O[C@H]1C(=O)[C@@]2(C)[C@H]([C@H](OC(=O)c3ccccc3)[C@]3(O)C[C@H](OC(=O)[C@H](O)[C@@H](NC(=O)c4ccccc4)c4ccccc4)C(C)=C1C3(C)C)[C@]1(OC(C)=O)CO[C@@H]1C[C@@H]2O [Paclitaxel]; settings: max 3 µM
Outline: as §1

Alisertib = compound: COc1cc(Nc2ncc3c(n2)-c2ccc(Cl)cc2C(c2c(F)cccc2OC)=NC3)ccc1C(=O)O [Alisertib]; settings: max 10 µM
Outline: as §1

AZD0156 = compound: CN(C)CCCOc1ccc(-c2ccc3ncc4c(c3c2)n(C2CCOCC2)c(=O)n4C)cn1 [AZD0156]; settings: max 3 µM
Outline: as §1

AZD5363 = compound: C1CN(CCC1(C(=O)N[C@@H](CCO)C2=CC=C(C=C2)Cl)N)C3=NC=NC4=C3C=CN4 [AZD5363]; settings: max 10 µM
Outline: as §1

5-Fluorouracil = compound: O=c1[nH]cc(F)c(=O)[nH]1 [5-Fluorouracil]; settings: max 20 µM
Outline: as §1

AZD6738 = compound: C[C@@H]1COCCN1C2=NC(=NC(=C2)C3(CC3)[S@](=N)(=O)C)C4=C5C=CNC5=NC=C4 [AZD6738]; settings: max 10 µM
Outline: as §1

Trametinib = compound: CC(=O)Nc1cccc(-n2c(=O)n(C3CC3)c(=O)c3c(Nc4ccc(I)cc4F)n(C)c(=O)c(C)c32)c1 [Trametinib]; settings: max 1 µM
Outline: as §1

Taselisib = compound: Cc1nc(-c2cn3c(n2)-c2ccc(-c4cnn(C(C)(C)C(N)=O)c4)cc2OCC3)n(C(C)C)n1 [Taselisib]; settings: max 10 µM
Outline: as §1

AZD1775 = compound: C=CCn1c(=O)c2cnc(Nc3ccc(N4CCN(C)CC4)cc3)nc2n1-c1cccc(C(C)(C)O)n1 [AZD1775]; settings: max 3 µM
Outline: as §1

SN-38 = compound: CCc1c2c(nc3ccc(O)cc13)-c1cc3c(c(=O)n1C2)COC(=O)[C@]3(O)CC [SN-38]; settings: max 0.3 µM
Outline: as §1

SRA737 = compound: N#Cc1cnc(Nc2cc(NC[C@H]3CNCCO3)c(C(F)(F)F)cn2)cn1 [SRA737]; settings: max 10 µM
Outline: as §1

Crizotinib = compound: C[C@@H](Oc1cc(-c2cnn(C3CCNCC3)c2)cnc1N)c1c(Cl)ccc(F)c1Cl [Crizotinib]; settings: max 10 µM
Outline: as §1

[1] = compound: O=C(Nc1ccc2[nH]nc(-c3ccncc3)c2c1)[C@@H]1CCN(CC(=O)N2CCN(c3ccc(-c4ncccn4)cc3)CC2)C1; settings: max 5 µM
Outline: as §1

Venetoclax = compound: CC1(C)CCC(CN2CCN(c3ccc(C(=O)NS(=O)(=O)c4ccc(NCC5CCOCC5)c([N+](=O)[O-])c4)c(Oc4cnc5[nH]ccc5c4)c3)CC2)=C(c2ccc(Cl)cc2)C1 [Venetoclax]; settings: max 1 µM
Outline: as §1

Selumetinib = compound: Cn1cnc2c(F)c(Nc3ccc(Br)cc3Cl)c(C(=O)NOCCO)cc21 [Selumetinib]; settings: max 10 µM
Outline: as §1

AZD2811 = compound: CCN(CCO)CCCOc1ccc2c(Nc3cc(CC(=O)Nc4cccc(F)c4)[nH]n3)ncnc2c1 [AZD2811]; settings: max 1 µM
Outline: as §1

SG3199 = compound: CC1=CN2[C@@H](C1)C=NC3=CC(=C(C=C3C2=O)OC)OCCCCCOC4=C(C=C5C(=C4)N=C[C@@H]6CC(=CN6C5=O)C)OC [SG3199]; settings: max 0.001 µM
Outline: as §1

AZD5991 = compound: Cc1c2c(nn1C)CSCc1cc(n(C)n1)CSc1cc(c3ccccc3c1)OCCCc1c(C(=O)O)n(C)c3c-2c(Cl)ccc13 [AZD5991]; settings: max 1 µM
Outline: as §1

Etoposide = compound: COc1cc([C@@H]2c3cc4c(cc3[C@@H](O[C@@H]3O[C@@H]5CO[C@@H](C)O[C@H]5[C@H](O)[C@H]3O)[C@H]3COC(=O)[C@H]23)OCO4)cc(OC)c1O [Etoposide]; settings: max 10 µM
Outline: as §1

Cell Line | IC50, cell viability 72 h (Prexasertib) [µM] | IC50, cell viability 72 h (Savolitinib) [µM] | IC50, cell viability 72 h (Gefitinib) [µM] | IC50, cell viability 72 h (MK-2206) [µM] | IC50, cell viability 72 h (AZD7648) [µM] | IC50, cell viability 72 h (Dasatinib) [µM] | IC50, cell viability 72 h (AZD5153) [µM] | IC50, cell viability 72 h (AZD8186) [µM] | IC50, cell viability 72 h (Olaparib) [µM] | IC50, cell viability 72 h (AZD4320) [µM] | IC50, cell viability 72 h (Palbociclib) [µM] | IC50, cell viability 72 h (AZD1390) [µM] | IC50, cell viability 72 h (Carboplatin) [µM] | IC50, cell viability 72 h (Lapatinib) [µM] | IC50, cell viability 72 h (Gemcitabine) [µM] | IC50, cell viability 72 h (Doxorubicin) [µM] | IC50, cell viability 72 h (Paclitaxel) [µM] | IC50, cell viability 72 h (Alisertib) [µM] | IC50, cell viability 72 h (AZD0156) [µM] | IC50, cell viability 72 h (AZD5363) [µM] | IC50, cell viability 72 h (5-Fluorouracil) [µM] | IC50, cell viability 72 h (AZD6738) [µM] | IC50, cell viability 72 h (Trametinib) [µM] | IC50, cell viability 72 h (Taselisib) [µM] | IC50, cell viability 72 h (AZD1775) [µM] | IC50, cell viability 72 h (SN-38) [µM] | IC50, cell viability 72 h (SRA737) [µM] | IC50, cell viability 72 h (Crizotinib) [µM] | IC50, cell viability 72 h [1] [µM] | IC50, cell viability 72 h (Venetoclax) [µM] | IC50, cell viability 72 h (Selumetinib) [µM] | IC50, cell viability 72 h (AZD2811) [µM] | IC50, cell viability 72 h (SG3199) [µM] | IC50, cell viability 72 h (AZD5991) [µM] | IC50, cell viability 72 h (Etoposide) [µM]
OVCAR-5 (Ovarian Carcinoma) | 0.0405 | > 1 | > 10 | > 10 | > 10 | 0.381 | 0.677 | > 10 | > 10 | > 1 | > 10 | > 0.3 | > 10 | > 10 | > 0.3 | > 1 | 0.12 | > 10 | > 3 | > 10 | > 20 | 5.14 | 0.0896 | 2.07 | > 3 | > 0.3 | > 10 | > 10 | 1.66 | > 1 | 2.15 | > 1 | > 0.001 | > 1 | > 10
SAS (Oral Cavity Carcinoma) | 0.059 | > 1 | 9.89 | > 10 | > 10 | > 2 | 0.115 | > 10 | > 10 | > 1 | 5.61 | > 0.3 | > 10 | > 10 | 0.013 | 0.226 | 0.0777 | > 10 | > 3 | > 10 | > 20 | 4.42 | 0.191 | 5.19 | 0.511 | 0.00292 | > 10 | > 10 | 0.479 | > 1 | 6.14 | > 1 | > 0.001 | > 1 | 1.13
